EP4603105A1, “PHARMACEUTICAL COMPOSITION CONTAINING CYCLIC COMPOUND HAVING SELECTIVE KRAS INHIBITORY EFFECT AGAINST HRAS AND NRAS” (CHUGAI SEIYAKU KABUSHIKI KAISHA, priority 2022, dated 2024)

Legend:
[1] = molecular target: GDP-bound NRAS wild-type protein (Homo sapiens, UniProt P01111); test: Binding to NRAS by surface plasmon resonance (SPR), KD and KD ratio to KRAS
How it was run: (§1)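 GDP-bound biotin-Avi RAS captured at ~100–300 RU, 30°C, pH 7.4 HBS containing 10 µM GDP, 10 mM MgCl2, 1 mM DTT, 0.01% Tween 20 and 4% DMSO. KD by 1:1 fitting.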

HRAS wild-type protein = HRAS wild-type protein (Homo sapiens, UniProt P01112); test: Binding to HRAS by surface plasmon resonance (SPR), KD and KD ratio to KRAS
How it was run: as §1

[2] = system: human lung cancer strain NCI-H441; assay type: cell-based
How it was run: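 Readout: […] after the ATP-based reagent. Compound: serial dilutions in dimethyl sulfoxide.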

[3] = ratio of KD for GDP-bound NRAS wild-type protein to KD for KRAS
[4] = ratio of KD for HRAS wild-type protein to KD for KRAS
[5] = ratio of KD value for GDP-bound NRAS wild-type protein to KD value for KRAS (SPR)
[6] = ratio of KD value for HRAS wild-type protein to KD value for KRAS (SPR)

Sequence of GDP-bound NRAS wild-type protein (P01111 whole entry): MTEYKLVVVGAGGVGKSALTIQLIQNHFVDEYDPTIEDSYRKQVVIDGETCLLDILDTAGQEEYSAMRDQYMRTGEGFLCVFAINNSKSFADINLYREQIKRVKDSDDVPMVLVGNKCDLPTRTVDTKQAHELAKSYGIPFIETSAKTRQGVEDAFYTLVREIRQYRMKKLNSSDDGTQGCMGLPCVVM
Sequence of HRAS wild-type protein (P01112 whole entry): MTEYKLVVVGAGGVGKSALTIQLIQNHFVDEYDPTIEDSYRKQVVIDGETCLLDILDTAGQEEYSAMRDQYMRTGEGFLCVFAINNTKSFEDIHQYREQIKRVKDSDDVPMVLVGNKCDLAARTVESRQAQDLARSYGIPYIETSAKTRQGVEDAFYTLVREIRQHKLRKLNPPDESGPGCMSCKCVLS

SMILES | NRAS /KRAS [1, 3] | HRAS /KRAS (HRAS wild-type protein; [4]) | IC50 [2] [nM] | NRAS /KRAS [1, 5] | HRAS /KRAS (HRAS wild-type protein; [6]) | NRAS /KRAS ([1]; ratio of the KD value with respect to GDP-bound NRAS wild-type protein to the KD value with respect to KRAS) | HRAS /KRAS (HRAS wild-type protein; ratio of the KD value with respect to HRAS wild-type protein to the KD value with respect to KRAS)
CCO[C@@H]1C[C@H]2C(=O)NC3(CCC3)C(=O)N(C)[C@@H](C(C)(C)C)C(=O)N(C)[C@H](C(=O)N3CCOCC3)CC(=O)N(C)[C@@H](CC(C)C)C(=O)N[C@@H]([C@@H](C)CC)C(=O)N(C)CC(=O)N(C)[C@H]3CCCCN(C3=O)[C@@H](Cc3ccc(C(F)(F)F)cc3)C(=O)N(C)CC(=O)N[C@@H](CCc3cc(F)c(C(F)(F)F)c(F)c3)C(=O)N2C1 [PP0814] | B (a compound having 3 or more and less than 10 is denoted as B) | B (a compound having 3 or more and less than 10 is denoted as B) | 19.4 |  |  |  | 
CCO[C@@H]1C[C@H]2C(=O)NC3(CCC3)C(=O)N(C)[C@@H](C(CC)CC)C(=O)N(C)[C@H](C(=O)N(C)C)CC(=O)N(C)[C@@H](CC3CCCC3)C(=O)N[C@@H]([C@@H](C)CC)C(=O)N(C)CC(=O)N(C)[C@H]3C/C=C\CCN(C3=O)[C@@H](Cc3ccc(F)cc3)C(=O)N(C)CC(=O)N[C@@H](CCc3cc(F)c(C(F)(F)F)c(F)c3)C(=O)N2C1 [PP1517] |  |  | 33.6 | A (a compound having 10 or more and less than 20 is denoted as A) | A (a compound having 10 or more and less than 20 is denoted as A) |  | 
CC[C@H](C)[C@@H]1NC(=O)[C@H](CC(F)F)N(C)C(=O)C[C@@H](C(=O)N(C)C)N(C)C(=O)[C@H](C2CCCC2)N(C)C(=O)C2(CC(C)(C)C2)NC(=O)[C@@H]2CC(F)(F)CN2C(=O)[C@H](CCc2cc(F)c(C(F)(F)F)c(F)c2)NC(=O)CN(C)C(=O)[C@H](Cc2ccc(C(F)(F)F)cc2)N2CC/C=C\C[C@@H](C2=O)N(C)C(=O)CN(C)C1=O [PP1709] |  |  | 3.8 | A (a compound having 10 or more and less than 20 is denoted as A) | A (a compound having 10 or more and less than 20 is denoted as A) |  | 
CC[C@H](C)[C@@H]1NC(=O)[C@H](CC)N(C)C(=O)C[C@@H](C(=O)N(C)C)N(C)C(=O)[C@H](C2CCCC2)N(C)C(=O)C2(CCC2)N(C)C(=O)[C@@H]2C[C@@H](C)CN2C(=O)[C@H](CCc2cc(F)c(C(F)(F)F)c(F)c2)NC(=O)CN(C)C(=O)[C@H](Cc2ccc(C)cc2)N2CC/C=C\C[C@@H](C2=O)N(C)C(=O)[C@@H]2CCCN2C1=O [PP1789] |  |  | 9.5 | A (a compound having 10 or more and less than 20 is denoted as A) | A (a compound having 10 or more and less than 20 is denoted as A) |  | 
CCCN(C)C(=O)[C@@H]1CC(=O)N(C)[C@@H](COCC)C(=O)N[C@@H]([C@@H](C)CC)C(=O)N(C)CC(=O)N(C)[C@H]2C/C=C\CCN(C2=O)[C@@H](Cc2ccc(C(F)(F)F)cc2)C(=O)N(C)CC(=O)N[C@@H](CCc2ccc(C(F)(F)F)c(OC)c2)C(=O)N2C[C@H](OCC)C[C@H]2C(=O)NC2(CCC2)C(=O)N(C)[C@@H](C2CCCC2)C(=O)N1C [PP2015] |  |  | 5.6 |  |  | A (a compound having 10 or more and less than 20 is denoted as A) | B (a compound having 3 or more and less than 10 is denoted as B)
CCC(CC)[C@H]1C(=O)N(C)[C@H](C(=O)N(C)C)CC(=O)N(C)[C@H]2CCC/C=C/c3ccc(cc3)C[C@@H](C(=O)N(C)CC(=O)N[C@@H](CCc3cc(F)c(C(F)(F)F)c(F)c3)C(=O)N3CCC[C@H]3C(=O)NC3(CC(C)(C)C3)C(=O)N1C)N1CC/C=C\C[C@@H](C1=O)N(C)C(=O)CN(C)C(=O)[C@H]([C@@H](C)CC)NC2=O [PP2600] | A (a compound having 10 or more and less than 20 is denoted as A) | A (a compound having 10 or more and less than 20 is denoted as A) | 2.9 |  |  |  | 
CC[C@H](C)[C@@H]1NC(=O)[C@H](CC2CC2)N(C)C(=O)C[C@@H](C(=O)N(C)C)N(C)C(=O)[C@H](C2CCCC2)N(C)C(=O)C2(CCC2)NC(=O)[C@@H]2C[C@@H](F)CN2C(=O)[C@H](CCc2cc(F)c(C(F)(F)F)c(F)c2)NC(=O)CN(C)C(=O)[C@H](Cc2ccc(C(F)(F)F)cc2)N2CC/C=C\C[C@@H](C2=O)N(C)C(=O)CN(C)C1=O [PP1497] |  |  | 10.7 | A (a compound having 10 or more and less than 20 is denoted as A) | A (a compound having 10 or more and less than 20 is denoted as A) |  | 
